The supplement of paper PMC8741786
Converted amounts (≈) assume the structure as drawn.

What was measured:
[1] = test system: Neisseria oralis; assay: minimum inhibitory concentration (ETEST); settings: population: general population, antibiotic use in previous 6 months: No
Experimental: (§1)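 Oropharyngeal Neisseria isolates from MSM and employees in Belgium were identified to species by MALDI-TOF MS. MICs of azithromycin, ceftriaxone and ciprofloxacin were determined by ETEST on GC agar after 24 h at 36.5 °C and 5-7% CO2, in mg/L. Values beyond the strip range are reported as >256 (azithromycin) or <0.016 (ceftriaxone); isolates that did not grow are NA.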

[2] = test system: Neisseria meningitidis; assay: minimum inhibitory concentration (ETEST)
Experimental: as §1

CO/N=C(\C(=O)N[C@@H]1C(=O)N2C(C(=O)O)=C(CSc3nc(=O)c(O)nn3C)CS[C@H]12)c1csc(N)n1 [ceftriaxone]
[1]
Settings	minimum inhibitory concentration [µg/mL]
isolate id (sample isolate): Co000761_7	0.064 (≈ 0.115 µM)
isolate id (sample isolate): Co000763_1	0.032 (≈ 0.0577 µM)
isolate id (sample isolate): Co000766_2	0.023 (≈ 0.0415 µM)
isolate id (sample isolate): Co000770_1	0.064 (≈ 0.115 µM)
isolate id (sample isolate): Co000774_1	0.032 (≈ 0.0577 µM)
isolate id (sample isolate): Co000776_1	0.047 (≈ 0.0847 µM)
isolate id (sample isolate): Co000776_1.1	0.047 (≈ 0.0847 µM)
isolate id (sample isolate): Co000779_2	0.094 (≈ 0.169 µM)
isolate id (sample isolate): Co000790_5	0.064 (≈ 0.115 µM)

[2]
Settings	minimum inhibitory concentration [µg/mL]
isolate id (sample isolate): 19040471_1, population: MSM, antibiotic use in previous 6 months: No	< 0.016
isolate id (sample isolate): 19040855_1, population: MSM, antibiotic use in previous 6 months: No	< 0.016
isolate id (sample isolate): 19040874_2, population: MSM, antibiotic use in previous 6 months: No	0.016 (≈ 0.0289 µM)
isolate id (sample isolate): 19040900_2, population: MSM, antibiotic use in previous 6 months: No	0.023 (≈ 0.0415 µM)
isolate id (sample isolate): 19042150_2, population: MSM, antibiotic use in previous 6 months: Yes	< 0.016
isolate id (sample isolate): 19042756_3, population: MSM, antibiotic use in previous 6 months: Yes	< 0.016
isolate id (sample isolate): 19043201_1, population: MSM, antibiotic use in previous 6 months: No	< 0.016
isolate id (sample isolate): 19043201_2, population: MSM, antibiotic use in previous 6 months: No	< 0.016
isolate id (sample isolate): 19043274_1, population: MSM, antibiotic use in previous 6 months: Yes	< 0.016
isolate id (sample isolate): 19043274_2, population: MSM, antibiotic use in previous 6 months: Yes	0.016 (≈ 0.0289 µM)
isolate id (sample isolate): 19051853_1, population: MSM, antibiotic use in previous 6 months: No	< 0.016
isolate id (sample isolate): 19052394_3, population: MSM, antibiotic use in previous 6 months: Yes	< 0.016
isolate id (sample isolate): 19052434_1, population: MSM, antibiotic use in previous 6 months: Yes	< 0.016
isolate id (sample isolate): 19060069_1, population: MSM, antibiotic use in previous 6 months: Yes	0.064 (≈ 0.115 µM)
isolate id (sample isolate): 19060069_2, population: MSM, antibiotic use in previous 6 months: Yes	0.064 (≈ 0.115 µM)
isolate id (sample isolate): 19060089_2, population: MSM, antibiotic use in previous 6 months: Yes	< 0.016
isolate id (sample isolate): 19061666_1, population: MSM, antibiotic use in previous 6 months: Yes	1 (≈ 1.8 µM)
isolate id (sample isolate): 19062990_1, population: MSM, antibiotic use in previous 6 months: Yes	< 0.016
isolate id (sample isolate): 19070019_2, population: MSM, antibiotic use in previous 6 months: No	0.047 (≈ 0.0847 µM)
isolate id (sample isolate): 19070019_4, population: MSM, antibiotic use in previous 6 months: No	0.064 (≈ 0.115 µM)
isolate id (sample isolate): 19070047_1, population: MSM, antibiotic use in previous 6 months: No	< 0.016
isolate id (sample isolate): 19082621_2, population: MSM, antibiotic use in previous 6 months: No	< 0.016
isolate id (sample isolate): 19091461_1, population: MSM, antibiotic use in previous 6 months: No	< 0.016
isolate id (sample isolate): 19091461_2, population: MSM, antibiotic use in previous 6 months: No	< 0.016
isolate id (sample isolate): 19091973_1, population: MSM, antibiotic use in previous 6 months: No	< 0.016
isolate id (sample isolate): 19092429_3, population: MSM, antibiotic use in previous 6 months: No	< 0.016
isolate id (sample isolate): 19103457_1, population: MSM, antibiotic use in previous 6 months: No	< 0.016
isolate id (sample isolate): 19103457_4, population: MSM, antibiotic use in previous 6 months: No	< 0.016
isolate id (sample isolate): 19110394_1, population: MSM, antibiotic use in previous 6 months: No	< 0.016
isolate id (sample isolate): 19113049_3, population: MSM, antibiotic use in previous 6 months: No	< 0.016
isolate id (sample isolate): 19113049_6, population: MSM, antibiotic use in previous 6 months: No	< 0.016
isolate id (sample isolate): Co000765_1, population: general population, antibiotic use in previous 6 months: No	< 0.016
isolate id (sample isolate): Co000790_1, population: general population, antibiotic use in previous 6 months: No	< 0.016
isolate id (sample isolate): Co000790_3, population: general population, antibiotic use in previous 6 months: No	< 0.016

O=C(O)c1cn(C2CC2)c2cc(N3CCNCC3)c(F)cc2c1=O [ciprofloxacin]
[1]
Settings	minimum inhibitory concentration [µg/mL]
isolate id (sample isolate): Co000761_7	0.016 (≈ 0.0483 µM)
isolate id (sample isolate): Co000763_1	0.012 (≈ 0.0362 µM)
isolate id (sample isolate): Co000766_2	0.023 (≈ 0.0694 µM)
isolate id (sample isolate): Co000770_1	0.016 (≈ 0.0483 µM)
isolate id (sample isolate): Co000774_1	0.023 (≈ 0.0694 µM)
isolate id (sample isolate): Co000776_1	0.016 (≈ 0.0483 µM)
isolate id (sample isolate): Co000776_1.1	0.012 (≈ 0.0362 µM)
isolate id (sample isolate): Co000779_2	0.012 (≈ 0.0362 µM)
isolate id (sample isolate): Co000790_5	0.006 (≈ 0.0181 µM)

[2]
Settings	minimum inhibitory concentration [µg/mL]
isolate id (sample isolate): 19040471_1, population: MSM, antibiotic use in previous 6 months: No	0.003 (≈ 0.00905 µM)
isolate id (sample isolate): 19040855_1, population: MSM, antibiotic use in previous 6 months: No	0.004 (≈ 0.0121 µM)
isolate id (sample isolate): 19040874_2, population: MSM, antibiotic use in previous 6 months: No	0.004 (≈ 0.0121 µM)
isolate id (sample isolate): 19040900_2, population: MSM, antibiotic use in previous 6 months: No	0.004 (≈ 0.0121 µM)
isolate id (sample isolate): 19042150_2, population: MSM, antibiotic use in previous 6 months: Yes	0.002 (≈ 0.00604 µM)
isolate id (sample isolate): 19042756_3, population: MSM, antibiotic use in previous 6 months: Yes	0.008 (≈ 0.0241 µM)
isolate id (sample isolate): 19043201_1, population: MSM, antibiotic use in previous 6 months: No	0.003 (≈ 0.00905 µM)
isolate id (sample isolate): 19043201_2, population: MSM, antibiotic use in previous 6 months: No	0.003 (≈ 0.00905 µM)
isolate id (sample isolate): 19043274_1, population: MSM, antibiotic use in previous 6 months: Yes	0.004 (≈ 0.0121 µM)
isolate id (sample isolate): 19043274_2, population: MSM, antibiotic use in previous 6 months: Yes	0.004 (≈ 0.0121 µM)
isolate id (sample isolate): 19051853_1, population: MSM, antibiotic use in previous 6 months: No	0.004 (≈ 0.0121 µM)
isolate id (sample isolate): 19052394_3, population: MSM, antibiotic use in previous 6 months: Yes	0.002 (≈ 0.00604 µM)
isolate id (sample isolate): 19052434_1, population: MSM, antibiotic use in previous 6 months: Yes	0.006 (≈ 0.0181 µM)
isolate id (sample isolate): 19060069_1, population: MSM, antibiotic use in previous 6 months: Yes	0.006 (≈ 0.0181 µM)
isolate id (sample isolate): 19060069_2, population: MSM, antibiotic use in previous 6 months: Yes	0.004 (≈ 0.0121 µM)
isolate id (sample isolate): 19060089_2, population: MSM, antibiotic use in previous 6 months: Yes	0.002 (≈ 0.00604 µM)
isolate id (sample isolate): 19061666_1, population: MSM, antibiotic use in previous 6 months: Yes	0.064 (≈ 0.193 µM)
isolate id (sample isolate): 19062990_1, population: MSM, antibiotic use in previous 6 months: Yes	0.004 (≈ 0.0121 µM)
isolate id (sample isolate): 19070019_2, population: MSM, antibiotic use in previous 6 months: No	0.003 (≈ 0.00905 µM)
isolate id (sample isolate): 19070019_4, population: MSM, antibiotic use in previous 6 months: No	0.003 (≈ 0.00905 µM)
isolate id (sample isolate): 19070047_1, population: MSM, antibiotic use in previous 6 months: No	0.006 (≈ 0.0181 µM)
isolate id (sample isolate): 19082621_2, population: MSM, antibiotic use in previous 6 months: No	0.004 (≈ 0.0121 µM)
isolate id (sample isolate): 19091461_1, population: MSM, antibiotic use in previous 6 months: No	0.008 (≈ 0.0241 µM)
isolate id (sample isolate): 19091461_2, population: MSM, antibiotic use in previous 6 months: No	0.008 (≈ 0.0241 µM)
isolate id (sample isolate): 19091973_1, population: MSM, antibiotic use in previous 6 months: No	0.003 (≈ 0.00905 µM)
isolate id (sample isolate): 19092429_3, population: MSM, antibiotic use in previous 6 months: No	0.003 (≈ 0.00905 µM)
isolate id (sample isolate): 19103457_1, population: MSM, antibiotic use in previous 6 months: No	0.003 (≈ 0.00905 µM)
isolate id (sample isolate): 19103457_4, population: MSM, antibiotic use in previous 6 months: No	0.003 (≈ 0.00905 µM)
isolate id (sample isolate): 19110394_1, population: MSM, antibiotic use in previous 6 months: No	0.003 (≈ 0.00905 µM)
isolate id (sample isolate): 19113049_3, population: MSM, antibiotic use in previous 6 months: No	0.004 (≈ 0.0121 µM)
isolate id (sample isolate): 19113049_6, population: MSM, antibiotic use in previous 6 months: No	0.003 (≈ 0.00905 µM)
isolate id (sample isolate): Co000765_1, population: general population, antibiotic use in previous 6 months: No	0.004 (≈ 0.0121 µM)
isolate id (sample isolate): Co000790_1, population: general population, antibiotic use in previous 6 months: No	0.125 (≈ 0.377 µM)
isolate id (sample isolate): Co000790_3, population: general population, antibiotic use in previous 6 months: No	0.125 (≈ 0.377 µM)
